Reference: US6489475B2, “Method of producing heterocyclic derivatives” (Sankyo Company, Limited, priority 1994, dated 2002)
Marks after values point to notes of the source that are not given here.

Experiments:
[1] = tested on: ACAT; test: ACAT inhibitory activity (small intestine mucosa microsomes, [1-14C]-oleoyl CoA, cholesteryl oleate production); assay type: biochemical, rabbit; conditions: inhibition of cholesteryl oleate production vs control
Procedure: A high cholesterol feed [a feed added with cholesterol (1%), Clea Japan, Inc.] was fed to male Japanese white rabbits weighing 2-2.5 kg at 100 g per day and the rabbits were bred for 4 weeks. The rabbits were killed by bleeding under anesthesia and small intestine was removed. The mucous membrane of small intestine was peeled, collected and homogenated. The homogenate was centrifuged at 4° C. and 10,000 rpm for 15 min. The obtained supernatant was further centrifuged at 4° C. and 41,000 rpm for 30 minutes to give microsomal fractions. Using this microsomal suspension as an enzyme sample, dimethyl sulfoxide (DMSO, 5 μl) or a test compound dissolved in DMSO (test compound solution, 5 μl), and a reaction substrate [1-^14C]-oleoyl CoA were added to a reaction buffer. After incubation at 37° C. for 5 minutes, a chloroform-methanol mixture was added to stop the reaction. Water was added thereto and mixed, and chloroform layer was separated. The solvent was evaporated to dryness, and the residue was dissolved in hexane. The mixture was subjected to thin layer chromatography using a silica gel plate. The spots of cholesteryl oleate on the silica gel plate were scraped, and quantitatively assayed on a liquid scintillation counter. The ACAT inhibitory activity of the test compound was expressed as a proportion (%) of inhibition of cholesteryl oleate, namely, the proportion of inhibition of cholesteryl oleate production as compared to control.

[2] = tested on: Male Wister rats; test: Serum total cholesterol reducing effect in rats on high cholesterol feed; assay type: in vivo; conditions: oral, once a day for 3 days, rat
Procedure: Serum Total Cholesterol Reducing Effect
Male Wister rats weighing 180-200 g were bred under free access to a high cholesterol feed [added with cholesterol (1%), cholic acid (0.5%) and coconut oil (10%), Clea Japan, Inc.] for 3 days, during which period a test compound (10-100 mg/kg) suspended in 5% gum arabic solution was forcibly administered once a day orally for 3 days. Only 5% gum arabic solution was administered to control animals. After final administration, the test animals were fasted for 5 hours and the blood was taken. The serum total cholesterol level was determined using a commercially available assay kit (cholesterol-E-Test Wako, Wako Pure Chemical Industries, Ltd.). The activity of the test compound was expressed as a proportion (%) of reduction of serum total cholesterol level, namely, the proportion of reduction of serum total cholesterol as compared to control.

[3] = tested on: LDL; test: LDL peroxidation inhibitory effect (copper sulfate, malondialdehyde by thiobarbituric acid method); assay type: biochemical, rabbit; conditions: concentration 10^-5M; 37°C, 24 hours; malondialdehyde production inhibitory ratio
Procedure: LDL Peroxidation Inhibitory Effect
Male Japanese white rabbits weighing 2-2.5 kg were bred on 100 g per day of a high cholesterol feed [added with cholesterol (1%), Clea Japan, Inc.] for 4 weeks. The blood was taken from carotid and plasma was obtained. Then, LDL was fractionated from the plasma by ultracentrifugation, dialyzed for one day and preserved at 4° C. LDL (400 μg) and aqueous copper sulfate solution (final concentration 5 μM) were added to bufferized Ham F-10 medium (2 ml, GIBCO, USA). DMSO or a solution (20 μl) of test compound dissolved in DMSO was added and the mixture was incubated at 37° C. for 24 hours. After the completion of the incubation, LDL peroxide in medium was allowed to develop color by thiobarbituric acid method and assayed as malondialdehyde. The activity of the test compound was expressed as malondialdehyde production inhibitory ratio (%), namely, the proportion of inhibition of production of malondialdehyde as compared to control.

[4] = tested on: plasma; test: Plasma lipoperoxidation inhibitory effect (copper sulfate, malondialdehyde by thiobarbituric acid method); assay type: biochemical, rabbit; conditions: concentration 10^-5M; 37°C, 3 hours; malondialdehyde production inhibitory ratio
Procedure: Plasma Lipoperoxidation Inhibitory Effect
The blood was taken from male Japanese white rabbits weighing 2-2.5 kg under anesthesia and heparinized plasma was separated by a conventional method. To the plasma (2.0 ml) was added DMSO or a solution (20 μl, final concentration 10^−5 M) of test compound dissolved in DMSO, and aqueous copper sulfate solution (final concentration 5 mM) was added immediately thereafter. The mixture was incubated at 37° C. for 3 hours. After the completion of the incubation, 20% trichloroacetic acid was added to stop the reaction. Then, the mixture was centrifuged at 4° C., 4,500 rpm for 15 minutes. The lipoperoxide in the supernatant thus obtained was assayed as malondialdehyde upon color development by thiobarbituric acid method. The activity of the test compound was expressed as malondialdehyde production inhibitory ratio (%), namely, the proportion of inhibition of production of malondialdehyde as compared to control.

## Cc1cc(C)c(NC(=O)C(C)(C)C)c2c1CCN2CC(C)C [Example 32]
[1]; concentration 10^-5M
  Result of Exp. Ex. 1: ACAT inhibition: 93.9 ** %
[2]; dose 30 mg/kg/day
  Result of Exp. Ex. 2: reduction of serum total cholesterol: 57.4 ** %
[3]
  Result of Exp. Ex. 3: LDL peroxidation inhibition: 85.3%
[4]
  Result of Exp. Ex. 4: plasma lipoperoxidation inhibition: 89.1%

## CCCCN1CCc2c(C)cc(C)c(NC(=O)C(C)(C)C)c21 [Example 8]
[1]; concentration 10^-5M
  Result of Exp. Ex. 1: ACAT inhibition: 99.7 ** %
[2]; dose 30 mg/kg/day
  Result of Exp. Ex. 2: reduction of serum total cholesterol: 48.0 ** %
[3]
  Result of Exp. Ex. 3: LDL peroxidation inhibition: 91.9%
[4]
  Result of Exp. Ex. 4: plasma lipoperoxidation inhibition: 85.1%

## CCCCCCN1CCc2c(C)cc(C)c(NC(=O)C(C)(C)COC(C)=O)c21 [Example 29]
[1]; concentration 10^-5M
  Result of Exp. Ex. 1: ACAT inhibition: 86.6 ** %
[2]; dose 30 mg/kg/day
  Result of Exp. Ex. 2: reduction of serum total cholesterol: 6.9 ** %
[3]
  Result of Exp. Ex. 3: LDL peroxidation inhibition: 91.9%
[4]
  Result of Exp. Ex. 4: plasma lipoperoxidation inhibition: 91.1%

## CCOCCN1CCc2c(C)cc(C)c(NC(=O)C(C)(C)C)c21 [Example 24]
[1]; concentration 10^-5M
  Result of Exp. Ex. 1: ACAT inhibition: 97.1 ** %
[2]; dose 30 mg/kg/day
  Result of Exp. Ex. 2: reduction of serum total cholesterol: 28.3 ** %
[3]
  Result of Exp. Ex. 3: LDL peroxidation inhibition: 42.2%
[4]
  Result of Exp. Ex. 4: plasma lipoperoxidation inhibition: 90.5%

## CCCCC(C)(C)C(=O)Nc1c(C)cc(C)c2c1N(CC)CC2 [Example 6]
[1]; concentration 10^-5M
  Result of Exp. Ex. 1: ACAT inhibition: 99.8 ** %
[2]; dose 30 mg/kg/day
  Result of Exp. Ex. 2: reduction of serum total cholesterol: 53.3 ** %
[3]
  Result of Exp. Ex. 3: LDL peroxidation inhibition: 24.8%
[4]
  Result of Exp. Ex. 4: plasma lipoperoxidation inhibition: 37.4%

## CCCCCCN1CCc2c(C)cc(C)c(NC(=O)C(C)(C)COCC)c21 [Example 34]
[1]; concentration 10^-5M
  Result of Exp. Ex. 1: ACAT inhibition: 91.0 ** %
[2]; dose 30 mg/kg/day
  Result of Exp. Ex. 2: reduction of serum total cholesterol: 50.2 ** %
[3]
  Result of Exp. Ex. 3: LDL peroxidation inhibition: 82.9%
[4]
  Result of Exp. Ex. 4: plasma lipoperoxidation inhibition: 89.8%

## CCCCCCN1CCc2c(C)cc(C)c(NC(=O)CC(C)(C)CC(=O)O)c21 [Example 18]
[1]; concentration 10^-4M
  Result of Exp. Ex. 1: ACAT inhibition: 69.6 * %
[2]; dose 30 mg/kg/day
  Result of Exp. Ex. 2: reduction of serum total cholesterol: 22.3 ** %
[3]
  Result of Exp. Ex. 3: LDL peroxidation inhibition: 34.0%
[4]
  Result of Exp. Ex. 4: plasma lipoperoxidation inhibition: 87.1%

## Cc1cc(C)c(NC(=O)C(C)(C)C)c2c1CCN2CCC(C)C [Example 31]
[1]; concentration 10^-5M
  Result of Exp. Ex. 1: ACAT inhibition: 93.8 ** %
[2]; dose 30 mg/kg/day
  Result of Exp. Ex. 2: reduction of serum total cholesterol: 49.0 ** %
[3]
  Result of Exp. Ex. 3: LDL peroxidation inhibition: 90.3%
[4]
  Result of Exp. Ex. 4: plasma lipoperoxidation inhibition: 90.8%

## CC(=O)OCCN1CCc2c(C)cc(C)c(NC(=O)C(C)(C)C)c21 [Example 22]
[1]; concentration 10^-5M
  Result of Exp. Ex. 1: ACAT inhibition: 78.5 ** %
[2]; dose 100 mg/kg/day
  Result of Exp. Ex. 2: reduction of serum total cholesterol: 38.6 *** %
[3]
  Result of Exp. Ex. 3: LDL peroxidation inhibition: 40.6%
[4]
  Result of Exp. Ex. 4: plasma lipoperoxidation inhibition: 92.8%

## CCCCCCN1CCc2c(C)cc(C)c(NC(=O)CCCC)c21 [Example 21]
[1]; concentration 10^-5M
  Result of Exp. Ex. 1: ACAT inhibition: 94.4 ** %
[2]; dose 10 mg/kg/day
  Result of Exp. Ex. 2: reduction of serum total cholesterol: 28.3 * %
[3]
  Result of Exp. Ex. 3: LDL peroxidation inhibition: 92.1%
[4]
  Result of Exp. Ex. 4: plasma lipoperoxidation inhibition: 91.4%

## CCCCCCC(C)(C)C(=O)Nc1c(C)cc(C)c2c1N(CC)CC2 [Example 13]
[1]; concentration 10^-5M
  Result of Exp. Ex. 1: ACAT inhibition: 96.0 ** %
[2]; dose 30 mg/kg/day
  Result of Exp. Ex. 2: reduction of serum total cholesterol: 28.4 ** %
[3]
  Result of Exp. Ex. 3: LDL peroxidation inhibition: 82.4%
[4]
  Result of Exp. Ex. 4: plasma lipoperoxidation inhibition: 87.1%

## CCCCCCN1CCc2c(C)cc(C)c(NC(=O)C(C)(C)CCCC)c21 [Example 14]
[1]; concentration 10^-5M
  Result of Exp. Ex. 1: ACAT inhibition: 96.6 ** %
[2]; dose 30 mg/kg/day
  Result of Exp. Ex. 2: reduction of serum total cholesterol: 53.9 ** %
[3]
  Result of Exp. Ex. 3: LDL peroxidation inhibition: 88.3%
[4]
  Result of Exp. Ex. 4: plasma lipoperoxidation inhibition: 93.1%

## CCCCCCN1CCc2c(C)cc(C)c(NC(=O)C(C)(C)CO)c21 [Example 28]
[1]; concentration 10^-5M
  Result of Exp. Ex. 1: ACAT inhibition: 79.4 ** %
[2]; dose 100 mg/kg/day
  Result of Exp. Ex. 2: reduction of serum total cholesterol: 20.8 *** %
[3]
  Result of Exp. Ex. 3: LDL peroxidation inhibition: 92.2%
[4]
  Result of Exp. Ex. 4: plasma lipoperoxidation inhibition: 91.1%

## CCCCCCN1CCc2c(C)cc(C)c(NC(=O)C(C)(C)CCCCCC)c21 [Example 15]
[1]; concentration 10^-5M
  Result of Exp. Ex. 1: ACAT inhibition: 93.1 ** %
[2]; dose 10 mg/kg/day
  Result of Exp. Ex. 2: reduction of serum total cholesterol: 35.0 * %
[3]
  Result of Exp. Ex. 3: LDL peroxidation inhibition: 12.3%
[4]
  Result of Exp. Ex. 4: plasma lipoperoxidation inhibition: 90.1%

## Cc1cc(C)c(NC(=O)C(C)(C)C)c2c1CCN2CCCCCC(=O)O [Example 26]
[1]; concentration 10^-5M
  Result of Exp. Ex. 1: ACAT inhibition: 26.5 ** %
[2]; dose 30 mg/kg/day
  Result of Exp. Ex. 2: reduction of serum total cholesterol: 37.4 ** %
[3]
  Result of Exp. Ex. 3: LDL peroxidation inhibition: 43.3%
[4]
  Result of Exp. Ex. 4: plasma lipoperoxidation inhibition: 90.1%

## CCCCCCC(C)(C)C(=O)Nc1c(C)cc(C)c2c1N(CCCC)CC2 [Example 10]
[1]; concentration 10^-5M
  Result of Exp. Ex. 1: ACAT inhibition: 98.7 ** %
[2]; dose 30 mg/kg/day
  Result of Exp. Ex. 2: reduction of serum total cholesterol: 55.2 ** %
[3]
  Result of Exp. Ex. 3: LDL peroxidation inhibition: 18.3%
[4]
  Result of Exp. Ex. 4: plasma lipoperoxidation inhibition: 82.6%

## COCCN1CCc2c(C)cc(C)c(NC(=O)C(C)(C)C)c21 [Example 23]
[1]; concentration 10^-5M
  Result of Exp. Ex. 1: ACAT inhibition: 88.8 ** %
[2]; dose 30 mg/kg/day
  Result of Exp. Ex. 2: reduction of serum total cholesterol: 23.6 ** %
[3]
  Result of Exp. Ex. 3: LDL peroxidation inhibition: 54.8%
[4]
  Result of Exp. Ex. 4: plasma lipoperoxidation inhibition: 90.5%

## CCCCCCN1CCc2c(C)cc(C)c(NC(=O)C(C)(C)CCC(=O)O)c21 [Example 20]
[1]; concentration 10^-4M
  Result of Exp. Ex. 1: ACAT inhibition: 22.7 * %
[2]; dose 10 mg/kg/day
  Result of Exp. Ex. 2: reduction of serum total cholesterol: 7.8 * %
[3]
  Result of Exp. Ex. 3: LDL peroxidation inhibition: 67.8%
[4]
  Result of Exp. Ex. 4: plasma lipoperoxidation inhibition: 91.1%

## CCCCCCCCN1CCc2c(C)cc(C)c(NC(=O)C(C)(C)C)c21 [Example 11]
[1]; concentration 10^-5M
  Result of Exp. Ex. 1: ACAT inhibition: 99.2 ** %
[2]; dose 10 mg/kg/day
  Result of Exp. Ex. 2: reduction of serum total cholesterol: 59.5 * %
[3]
  Result of Exp. Ex. 3: LDL peroxidation inhibition: 91.6%
[4]
  Result of Exp. Ex. 4: plasma lipoperoxidation inhibition: 78.8%

## Cc1cc(C)c(NC(=O)N(Cc2ccc3c(c2)Cc2ccccc2-3)C2CCCCCC2)c(C)c1 [YM-750, 1-cycloheptyl-1-[(2-fluorenyl)methyl]-3-(2,4,6-trimethylphenyl)urea, reference compound]
[1]; concentration 10^-5M
  Result of Exp. Ex. 1: ACAT inhibition: 92.3 ** %
[2]; dose 30 mg/kg/day
  Result of Exp. Ex. 2: reduction of serum total cholesterol: 43.8 ** %
[3]
  Result of Exp. Ex. 3: LDL peroxidation inhibition: 0%

## CCCCCCN1CCc2c1cc(C)c(NC(=O)C(C)(C)C)c2C [Example 2, N-(1-hexyl-4,6-dimethylindolin-5-yl)-2,2-dimethylpropanamide]
[1]; concentration 10^-5M
  Result of Exp. Ex. 1: ACAT inhibition: 59.9 ** %
[3]
  Result of Exp. Ex. 3: LDL peroxidation inhibition: 99.5%
[4]
  Result of Exp. Ex. 4: plasma lipoperoxidation inhibition: 95.8%
